This is an account of results in ChEMBL document CHEMBL1201862, “PubChem BioAssay data set” (2004).

Test systems include TK-10; HOP-62; SF-268; IGROV-1; ACHN; Hs-578T; NCI-H23; MDA-N; MOLT-4; OVCAR-5; RXF 393; SN12C; MCF7; U-251; LOX IMVI; NCI-H226; OVCAR-8; COLO 205; BT-549; SK-MEL-5.
Experiment in all cases: NCI tumour cell line growth inhibition, 48 h

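Exposure lasted 48 hours, with cells grown in 96-well plates and compounds tested at five concentrations. Abbreviation: GI50, concentration required for 50% inhibition of growth.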 The source made the active and inactive calls. Cut-off read from the data, not from the text of the source: active = GI50 up to about 1.1 µM and inactive = higher.

As to `C=CC(=O)N1C/C(=C\c2ccc([N+](=O)[O-])cc2)C(=O)/C(=C/c2ccc([N+](=O)[O-])cc2)C1`, the GI50 in the experiment with TK-10 is 0.713 µM (active); with HOP-62, 0.222 µM (active); with SF-268, < 0.0403 µM (active); in the experiment on IGROV-1 it was 0.0728 µM (active); in the experiment with ACHN, 0.16 µM (active); with Hs-578T, < 0.0422 µM (active). The GI50 was 0.256 µM (active) in the experiment on NCI-H23; 0.169 µM (active) in the experiment with MDA-N; 0.0791 µM (active) in the experiment on MOLT-4; 0.29 µM (active) in the experiment on OVCAR-5; 0.142 µM (active) in the experiment with RXF 393; 0.195 µM (active) with SN12C. Besides, the GI50 was < 0.0243 µM (active) in the experiment on MCF7; 0.0697 µM (active) with U-251; < 0.0179 µM (active) in the experiment on LOX IMVI; 0.2 µM (active) in the experiment on NCI-H226; < 0.0391 µM (active) in the experiment with OVCAR-8; 0.0483 µM (active) in the experiment with COLO 205. Besides, the GI50 in the experiment with BT-549 was 0.194 µM (active); in the experiment on SK-MEL-5, 0.719 µM (active).
Regarding `O=C(O)c1cccc(CN2CCCCC2)c1`, the GI50 in the experiment on TK-10, in the experiment with HOP-62, in the experiment with SF-268, with IGROV-1, in the experiment on ACHN and with Hs-578T was > 100 µM (inactive) in each case. The GI50 in the experiment on NCI-H23, in the experiment with MDA-N, in the experiment on MOLT-4, in the experiment on OVCAR-5, in the experiment on RXF 393 and with SN12C was > 100 µM (inactive) throughout. Also, the GI50 in the experiment on MCF7, with U-251, in the experiment on LOX IMVI, in the experiment with NCI-H226, in the experiment with OVCAR-8 and in the experiment with COLO 205 was > 100 µM (inactive) throughout. In addition, the GI50 in the experiment with BT-549 and in the experiment on SK-MEL-5 was > 100 µM (inactive) each time.
For the compound `COc1ccc2[nH]c3c(C)c4ccnc(NCCCN(C)CCCNc5ccc6ncn7c8ccccc8c(=O)c5c67)c4c(C)c3c2c1`, the GI50 is 0.22 µM (active) with TK-10; 0.275 µM (active) in the experiment on HOP-62; 0.352 µM (active) with SF-268; 0.158 µM (active) with IGROV-1; 0.0598 µM (active) with ACHN; 3.15 µM (inactive) with Hs-578T. In addition, the GI50 was 0.412 µM (active) in the experiment with NCI-H23; 0.411 µM (active) with MDA-N; 0.0043 µM (active) in the experiment on MOLT-4; 1.3 µM (inactive) with OVCAR-5; 0.256 µM (active) in the experiment with RXF 393; 0.0621 µM (active) with SN12C. Moreover, the GI50 with MCF7 was 0.142 µM (active); in the experiment on U-251, 0.134 µM (active); with LOX IMVI, 0.136 µM (active); with NCI-H226, 0.082 µM (active); with OVCAR-8, 0.348 µM (active); with COLO 205, 0.272 µM (active). In addition, the GI50 in the experiment on BT-549 is 1.06 µM (active); with SK-MEL-5, 0.573 µM (active).
Regarding `CC1(C)Oc2ccccc2OC1O` (stereo not given), the GI50 in the experiment on TK-10, with HOP-62, with SF-268, in the experiment on IGROV-1, with ACHN and in the experiment on Hs-578T was > 100 µM (inactive) each time. In addition, the GI50 in the experiment on NCI-H23, in the experiment with MDA-N, with MOLT-4, with OVCAR-5, in the experiment with RXF 393 and in the experiment with SN12C was > 100 µM (inactive) each time. For the same compound, the GI50 with MCF7, in the experiment on U-251, in the experiment on LOX IMVI, in the experiment with NCI-H226, in the experiment with OVCAR-8 and in the experiment with COLO 205 was > 100 µM (inactive) throughout. In addition, the GI50 with BT-549 and in the experiment with SK-MEL-5 was > 100 µM (inactive) each time.
As to `O=C(NO)c1cccc(OCc2ccc(Br)cc2)c1`, the GI50 in the experiment with TK-10 was 10.5 µM (inactive); in the experiment with HOP-62, 4.97 µM (inactive); with SF-268, 4.03 µM (inactive); with IGROV-1 it was 3.35 µM (inactive); in the experiment with ACHN it was 3.03 µM (inactive); with Hs-578T, 13.1 µM (inactive). For the same compound, the GI50 in the experiment with NCI-H23 was 3.79 µM (inactive); in the experiment with MDA-N it was 9.02 µM (inactive); with MOLT-4, 2.03 µM (inactive); with OVCAR-5, 12.6 µM (inactive); with RXF 393 it was 3.52 µM (inactive); in the experiment with SN12C, 2.79 µM (inactive). Besides, the GI50 is 2.45 µM (inactive) in the experiment with MCF7; 4.63 µM (inactive) in the experiment on U-251; 2.11 µM (inactive) in the experiment with LOX IMVI; 3.78 µM (inactive) in the experiment with NCI-H226; 1.32 µM (inactive) in the experiment on OVCAR-8; 8.11 µM (inactive) in the experiment on COLO 205. The figures for the GI50 with BT-549 and with SK-MEL-5 were 7.71 µM (inactive) and 3.98 µM (inactive), respectively.
Take `Nc1ccc(C(=O)Nn2c(-c3ccccc3)nc3ccccc3c2=O)cc1`: the GI50 with TK-10 was > 100 µM (inactive); in the experiment on HOP-62, > 100 µM (inactive); with SF-268 it was > 100 µM (inactive); with IGROV-1, > 100 µM (inactive); in the experiment on ACHN, > 100 µM (inactive); in the experiment on Hs-578T, 14.1 µM (inactive). Besides, the GI50 with NCI-H23, in the experiment on MDA-N, in the experiment with MOLT-4, with OVCAR-5, in the experiment with RXF 393 and in the experiment on SN12C was > 100 µM (inactive) each time. The GI50 with MCF7, in the experiment with U-251, in the experiment with LOX IMVI, with NCI-H226, in the experiment on OVCAR-8 and in the experiment on COLO 205 was > 100 µM (inactive) each time. The GI50 in the experiment on BT-549 and with SK-MEL-5 was > 100 µM (inactive) in each case.
As to `CC1=C(O)C(=O)C=C2C1=CC=C1[C@@]2(C)CC[C@@]2(C)C3C[C@@H](C)C(=O)[C@@H](O)[C@]3(C)CC[C@]12C` (stereo not given in full), the GI50 was 1.84 µM (inactive) in the experiment with TK-10; 6.38 µM (inactive) in the experiment on HOP-62; 3.38 µM (inactive) in the experiment on SF-268; 1.73 µM (inactive) in the experiment on IGROV-1; 1.7 µM (inactive) in the experiment with ACHN; 4.18 µM (inactive) in the experiment with Hs-578T. Besides, the GI50 in the experiment with NCI-H23 is 1.97 µM (inactive); in the experiment with MDA-N it was 1.69 µM (inactive); in the experiment with MOLT-4, 0.745 µM (active); with OVCAR-5, 4.23 µM (inactive); in the experiment with RXF 393 it was 1.9 µM (inactive); in the experiment on SN12C, 2.08 µM (inactive). The GI50 is 2.77 µM (inactive) with MCF7; 1.85 µM (inactive) in the experiment with U-251; 1.5 µM (inactive) in the experiment on LOX IMVI; 4.44 µM (inactive) in the experiment with NCI-H226; 2.39 µM (inactive) in the experiment with OVCAR-8; 1.71 µM (inactive) with COLO 205. The GI50 was 1.75 µM (inactive) in the experiment on BT-549 and 3.35 µM (inactive) in the experiment with SK-MEL-5.
Regarding `N#Cc1c(N)nc2c(C#N)c(N)cc3c2c1Oc1ccccc1-3`, the GI50 in the experiment with TK-10, in the experiment on HOP-62, in the experiment with SF-268, in the experiment with IGROV-1, in the experiment with ACHN and in the experiment on Hs-578T was > 100 µM (inactive) each time. Further, the GI50 with NCI-H23, in the experiment with MDA-N, in the experiment on MOLT-4, with OVCAR-5, with RXF 393 and with SN12C was > 100 µM (inactive) in each case. The GI50 in the experiment with MCF7, in the experiment on U-251, with LOX IMVI, with NCI-H226, with OVCAR-8 and in the experiment on COLO 205 was > 100 µM (inactive) throughout. Moreover, the GI50 in the experiment with BT-549 and in the experiment with SK-MEL-5 was > 100 µM (inactive) in each case.
For `COc1c2nc(CCl)n(C)c(=O)c2c(OC)c2c(=O)n(C)c(CCl)nc12`, the GI50 in the experiment with TK-10 is 0.447 µM (active); with HOP-62, 1.87 µM (inactive); in the experiment with SF-268 it was 1.48 µM (inactive); with IGROV-1, 1.94 µM (inactive); in the experiment with ACHN, 1.19 µM (inactive); in the experiment with Hs-578T, 4.27 µM (inactive). For the same compound, the GI50 with NCI-H23 was 1.62 µM (inactive); in the experiment with MDA-N, 1.49 µM (inactive); in the experiment with MOLT-4 it was 0.294 µM (active); in the experiment on OVCAR-5, 2.3 µM (inactive); in the experiment on RXF 393, 2.07 µM (inactive); in the experiment with SN12C, 1.69 µM (inactive). Also, the GI50 with MCF7 was 0.48 µM (active); with U-251, 1.64 µM (inactive); in the experiment with LOX IMVI, 0.446 µM (active); in the experiment on NCI-H226, 3.06 µM (inactive); in the experiment on OVCAR-8, 2.67 µM (inactive); with COLO 205, 1.41 µM (inactive). The GI50 is 0.544 µM (active) in the experiment with BT-549 and 1.92 µM (inactive) in the experiment on SK-MEL-5.
As to `COC1=C(Br)[C@H](O)[C@@]2(C=C1Br)CC(C(=O)NCCCOc1c(Br)cc(C(O)CNC(C)=O)cc1Br)=NO2` (stereo not given in full) [APLYSINAMISINE III], the GI50 in the experiment on TK-10, in the experiment on HOP-62, in the experiment on SF-268, in the experiment on IGROV-1, with ACHN and in the experiment with Hs-578T was > 10 µM (inactive) in each case. For the same compound, the GI50 was > 10 µM (inactive) in the experiment with NCI-H23; 2.11 µM (inactive) with MDA-N; 7.73 µM (inactive) in the experiment on MOLT-4; > 10 µM (inactive) in the experiment on OVCAR-5; > 10 µM (inactive) with RXF 393; > 10 µM (inactive) in the experiment on SN12C. Also, the GI50 in the experiment with MCF7 was 6.18 µM (inactive); in the experiment on U-251, > 10 µM (inactive); in the experiment with LOX IMVI it was > 10 µM (inactive); with NCI-H226, > 10 µM (inactive); in the experiment on OVCAR-8, > 10 µM (inactive); in the experiment on COLO 205 it was > 10 µM (inactive). For the same compound, the results for the GI50 with BT-549 and with SK-MEL-5 were 2.79 µM (inactive) and 4.86 µM (inactive), respectively.
